Reference: patent publication US9346799B2, “Useful combinations of monobactam antibiotics with beta-lactamase inhibitors” (Basilea Pharmaceutica AG, priority 2005, dated 2016)
Each block holds one compound with its values, some of them ahead of it.

Assays:
Assay in all cases: MIC by broth microdilution (NCCLS M7-A5)
[1] = tested on: Pseudomonas aeruginosa 1973E
[2] = tested on: Enterobacter aerogenes Zayakosky; settings: for MIC of antibiotic: Enterobacter aerogenes Zayakosky 5
Serratia marcescens S6 = tested on: Serratia marcescens S6
[3] = tested on: Stenotrophomonas malthophilia 1AC736; settings: Stenotrophomonas maltophilia 1AC736
[4] = tested on: Pseudomonas aeruginosa MK1184
[5] = tested on: Enterobacter aerogenes B1; settings: E. aerogenes B1; + compound 323 and sulbactam, 4 mg/L each
Acinetobacter sp. J2 = settings: Acinetobacter baumannii J2
[6] = tested on: Klebsiella pneumoniae CF104
[7] = tested on: Acinetobacter baumannii J51; format: cell-based
Protocol: Antimicrobial activity of the compounds and of their combinations was determined against a selection of organisms according to the standard procedures described by the National Committee for Clinical Laboratory Standards (National Committee for Clinical Laboratory. Standards (2000). Methods for Dilution Antimicrobial Susceptibility Tests for Bacteria That Grow Aerobically-Fifth Edition: Approved Standard M7-A5. NCCLS, Wayne, Pa., USA).
In all cases the final concentration of DMSO incubated with the bacteria is less than or equal to 1%. […] Plates were incubated overnight at an appropriate temperature (30° C. or 37° C.) and optical densities assessed by eye. The MIC value is defined as the lowest compound concentration completely inhibiting visible growth of the test organism. When combinations between compounds of formula I with compounds of formula II and are evaluated the compounds of formula I are tested in dilution series as described above while the compounds of formula II and III-XIII were present in all wells at a constant concentration of 4 μg/mL each.

Enterobacter cloacae P99 = tested on: Enterobacter cloacae P99
[8] = + 102 + clavulanate, 4 mg/L each
[9] = + 324 + clavulanate, 4 mg/L each

SMILES: C[C@H]1[C@H](NC(=O)/C(=N\OC(C)(C)C(=O)O)c2csc(N)n2)C(=O)N1S(=O)(=O)O [Aztreonam, aztreonam, reference compound]
- MIC of antibiotic [1, 8]: 8 µg/mL
- MIC of antibiotic ([1]; + 102 + sulbactam, 4 mg/L each): 4 µg/mL
- Minimal Inhibitory Concentration of antibiotic ([2]; E. aerogenes Zayakosky, + compound 323 and sulbactam, 4 mg/L each): 8 mg/L
- MIC of antibiotic (Serratia marcescens S6; [8]): 2 µg/mL
- MIC of antibiotic (Serratia marcescens S6; + 102 + sulbactam, 4 mg/L each): 2 µg/mL
- MIC of antibiotic [3, 8]: 4 µg/mL
- MIC of antibiotic ([3]; + 102 + sulbactam, 4 mg/L each): 8 µg/mL
- MIC of antibiotic ([4]; + 102 + sulbactam, 4 mg/L each): 16 µg/mL
- Minimal Inhibitory Concentration of antibiotic [5]: 8 mg/L
- MIC of antibiotic (Acinetobacter sp. J2; [8]): 16 µg/mL
- MIC of antibiotic (Acinetobacter sp. J2; + 102 + sulbactam, 4 mg/L each): 4 µg/mL
- MIC of antibiotic [6, 8]: 0.5 µg/mL
- MIC of antibiotic ([6]; + 102 + sulbactam, 4 mg/L each): 1 µg/mL

SMILES: CC1(C)C(NC(=O)C(=NOCc2cc(=O)c(O)cn2O)c2csc(N)n2)C(=O)N1OCC(=O)O (stereo not shown) [Compound 33]
- MIC of antibiotic [1, 8]: 32 µg/mL
- MIC of antibiotic [1, 9]: 16 µg/mL
- MIC of antibiotic ([1]; antibiotic alone): 16 µg/mL
- MIC of antibiotic (Serratia marcescens S6; [8]): 0.5 µg/mL
- MIC of antibiotic (Serratia marcescens S6; [9]): 0.25 µg/mL
- MIC of antibiotic (Serratia marcescens S6; antibiotic alone): 0.25 µg/mL
- MIC of antibiotic [3, 8]: 2 µg/mL
- MIC of antibiotic [3, 9]: 2 µg/mL
- MIC of antibiotic ([3]; antibiotic alone): 2 µg/mL
- MIC of antibiotic [4, 8]: 32 µg/mL
- MIC of antibiotic [4, 9]: 16 µg/mL
- MIC of antibiotic ([4]; antibiotic alone): 32 µg/mL
- MIC of antibiotic (Acinetobacter sp. J2; [8]): >32 µg/mL
- MIC of antibiotic (Acinetobacter sp. J2; [9]): 16 µg/mL
- MIC of antibiotic (Acinetobacter sp. J2; antibiotic alone): 8 µg/mL
- MIC of antibiotic (Enterobacter cloacae P99; [8]): 32 µg/mL
- MIC of antibiotic (Enterobacter cloacae P99; [9]): 4 µg/mL
- MIC of antibiotic (Enterobacter cloacae P99; antibiotic alone): 16 µg/mL
- MIC of antibiotic [6, 8]: 2 µg/mL
- MIC of antibiotic [6, 9]: 0.5 µg/mL
- MIC of antibiotic ([6]; antibiotic alone): 0.5 µg/mL

The next lines start with the values.

- MIC of antibiotic ([1]; + 324 4 mg/L): 4 µg/mL
- MIC of antibiotic ([1]; + 324 + sulbactam, 4 mg/L each): 2 µg/mL
- MIC of antibiotic ([1]; + BRL427158 4 mg/L): 2 µg/mL
- MIC of antibiotic ([1]; + clavulanate 4 mg/L): 2 µg/mL
- MIC of antibiotic ([1]; antibiotic alone): 16 µg/mL
- MIC of antibiotic ([2]; + 324 4 mg/L): 4 µg/mL
- MIC of antibiotic ([2]; + BRL427158 4 mg/L): 0.5 µg/mL
- MIC of antibiotic ([2]; + clavulanic acid 4 mg/L): 8 µg/mL
- MIC of antibiotic ([2]; antibiotic alone): 16 µg/mL
- MIC of antibiotic (Serratia marcescens S6; + 324 4 mg/L): ≦0.06 mg/L
- MIC of antibiotic (Serratia marcescens S6; + 324 + sulbactam, 4 mg/L each): <0.06 µg/mL
- MIC of antibiotic (Serratia marcescens S6; + BRL427158 4 mg/L): ≦0.06 mg/L
- MIC of antibiotic (Serratia marcescens S6; + clavulanate 4 mg/L): ≦0.06 mg/L
- MIC of antibiotic (Serratia marcescens S6; antibiotic alone): <0.06 µg/mL
- MIC of antibiotic ([3]; + 324 4 mg/L): 0.25 µg/mL
- MIC of antibiotic ([3]; + 324 + sulbactam, 4 mg/L each): 0.25 µg/mL
- MIC of antibiotic ([3]; + BRL427158 4 mg/L): 0.125 µg/mL
- MIC of antibiotic ([3]; + clavulanate 4 mg/L): ≦0.06 mg/L
- MIC of antibiotic ([3]; antibiotic alone): <0.06 µg/mL
- MIC of antibiotic ([7]; + 324 4 mg/L): 2 µg/mL
- MIC of antibiotic ([7]; + BRL427158 4 mg/L): 32 µg/mL
- MIC of antibiotic ([7]; + clavulanic acid 4 mg/L): 1 µg/mL
- MIC of antibiotic ([7]; antibiotic alone): 4 µg/mL
- MIC of antibiotic ([4]; + 324 4 mg/L): 4 µg/mL
- MIC of antibiotic ([4]; + 324 + sulbactam, 4 mg/L each): 2 µg/mL
- MIC of antibiotic ([4]; + BRL427158 4 mg/L): 2 µg/mL
- MIC of antibiotic ([4]; + clavulanate 4 mg/L): 4 µg/mL
- MIC of antibiotic ([4]; antibiotic alone): 2 µg/mL
- MIC of antibiotic (Acinetobacter sp. J2; + 324 4 mg/L): 4 µg/mL
- MIC of antibiotic (Acinetobacter sp. J2; + 324 + sulbactam, 4 mg/L each): 2 µg/mL
- MIC of antibiotic (Acinetobacter sp. J2; + BRL427158 4 mg/L): 0.5 µg/mL
- MIC of antibiotic (Acinetobacter sp. J2; + clavulanate 4 mg/L): >32 µg/mL
- MIC of antibiotic (Acinetobacter sp. J2; antibiotic alone): 4 µg/mL
- MIC of antibiotic (Enterobacter cloacae P99; + 324 4 mg/L): 2 µg/mL
- MIC of antibiotic (Enterobacter cloacae P99; + 324 + sulbactam, 4 mg/L each): 2 µg/mL
- MIC of antibiotic (Enterobacter cloacae P99; + BRL427158 4 mg/L): 2 µg/mL
- MIC of antibiotic (Enterobacter cloacae P99; + clavulanate 4 mg/L): 8 µg/mL
- MIC of antibiotic (Enterobacter cloacae P99; antibiotic alone): 16 µg/mL
- MIC of antibiotic ([6]; + 324 4 mg/L): 16 µg/mL
- MIC of antibiotic ([6]; + 324 + sulbactam, 4 mg/L each): 1 µg/mL
- MIC of antibiotic ([6]; + BRL427158 4 mg/L): 0.125 µg/mL
- MIC of antibiotic ([6]; + clavulanate 4 mg/L): 0.5 µg/mL
- MIC of antibiotic ([6]; antibiotic alone): 32 µg/mL
SMILES: CC1(C)[C@H](NC(=O)/C(=N\OCc2cc(=O)c(O)cn2O)c2csc(N)n2)C(=O)N1OS(=O)(=O)O [Compound 26, (3S)-3-{(2Z)-2-(2-amino(1,3-thiazol-4-yl))-3-[(1,5-dihydroxy-4-oxo(2-hydropyridyl))methoxy]-3-azaprop-2-enoylamino}-4,4-dimethyl-2-oxoazetidinyl hydroxysulfonate]

- MIC of antibiotic [1, 8]: 4 µg/mL
- MIC of antibiotic ([1]; antibiotic alone): 4 µg/mL
- MIC of antibiotic (Serratia marcescens S6; [8]): 0.5 µg/mL
- MIC of antibiotic (Serratia marcescens S6; antibiotic alone): 1 µg/mL
- MIC of antibiotic [3, 8]: 2 µg/mL
- MIC of antibiotic ([3]; antibiotic alone): 1 µg/mL
- MIC of antibiotic [4, 8]: 4 µg/mL
- MIC of antibiotic ([4]; antibiotic alone): 4 µg/mL
- MIC of antibiotic (Acinetobacter sp. J2; [8]): 16 µg/mL
- MIC of antibiotic (Acinetobacter sp. J2; antibiotic alone): 16 µg/mL
- MIC of antibiotic (Enterobacter cloacae P99; [8]): 16 µg/mL
- MIC of antibiotic (Enterobacter cloacae P99; antibiotic alone): >32 µg/mL
- MIC of antibiotic [6, 8]: 0.5 µg/mL
- MIC of antibiotic ([6]; antibiotic alone): >32 µg/mL
SMILES: NC(=O)OCC1C(NC(=O)C(=NOCc2cc(=O)c(O)cn2O)c2csc(N)n2)C(=O)N1OCC(=O)O (stereo not shown) [Compound 41]

- MIC of antibiotic [1, 8]: 4 µg/mL
- MIC of antibiotic [1, 9]: 8 µg/mL
- MIC of antibiotic ([1]; antibiotic alone): 8 µg/mL
- MIC of antibiotic (Serratia marcescens S6; [8]): 2 µg/mL
- MIC of antibiotic (Serratia marcescens S6; [9]): 2 µg/mL
- MIC of antibiotic (Serratia marcescens S6; antibiotic alone): 2 µg/mL
- MIC of antibiotic [3, 8]: 1 µg/mL
- MIC of antibiotic [3, 9]: 1 µg/mL
- MIC of antibiotic ([3]; antibiotic alone): 1 µg/mL
- MIC of antibiotic [4, 8]: 2 µg/mL
- MIC of antibiotic [4, 9]: 4 µg/mL
- MIC of antibiotic ([4]; antibiotic alone): 4 µg/mL
- MIC of antibiotic (Acinetobacter sp. J2; [8]): >32 µg/mL
- MIC of antibiotic (Acinetobacter sp. J2; [9]): >32 µg/mL
- MIC of antibiotic (Acinetobacter sp. J2; antibiotic alone): >32 µg/mL
- MIC of antibiotic (Enterobacter cloacae P99; [8]): 16 µg/mL
- MIC of antibiotic (Enterobacter cloacae P99; [9]): 32 µg/mL
- MIC of antibiotic (Enterobacter cloacae P99; antibiotic alone): >32 µg/mL
- MIC of antibiotic [6, 8]: 4 µg/mL
- MIC of antibiotic [6, 9]: 2 µg/mL
- MIC of antibiotic ([6]; antibiotic alone): >32 µg/mL
SMILES: NC(=O)OCC1C(NC(=O)C(=NOCc2cc(=O)c(O)cn2O)c2nc(N)sc2Cl)C(=O)N1OS(=O)(=O)O (stereo not shown) [Compound 47]
